Results reported in US20250136608A1, “COMPOUNDS CONTAINING A GEM-DIFLUORIDE GROUP AND PREPARATION METHOD AND USE THEREOF” (CGENETECH (SUZHOU, CHINA) CO., LTD, priority 2022, published 2025).

Tests used:
[1] = target: JAK3 (Homo sapiens, UniProt P52333); assay: JAK3 kinase inhibitory activity test (HTRF); type: biochemical; conditions: JAK3 0.1 ng/μL, ATP 3 μM, substrate 1 μM, 3 h
[2] = Oral pharmacokinetic test in mice; conditions: male, C57, mouse, in vivo, 10 mg/kg
[3] = in vivo; conditions: male, C57, mouse, po

Compound | IC50 [1] [µM] | AUC(0-inf) ([3]; 10 mg/kg) [ng·h/mL] | AUC(0-t) ([3]; 10 mg/kg) [ng·h/mL] | Cmax ([3]; 10 mg/kg) [ng/mL] | MRT inf ([3]; 10 mg/kg) [min] | MRT last ([3]; 10 mg/kg) [min] | Tmax ([3]; 10 mg/kg) [min] | half-life ([3]; 10 mg/kg) [min] | other results
N#CCC1(n2cc(-c3ncnc4[nH]ccc34)cn2)CCC(C(F)(F)F)CC1 (centres unmarked) [Compound 3] | 0.151 | – | – | – | – | – | – | – | –
N#CCC1(n2cc(-c3ncnc4[nH]ccc34)cn2)CCC(F)(F)CC1 [Compound 1] | – | – | – | – | – | – | – | – | AUC(0-inf) [2]: 2150 ng·h/mL; AUC(0-t) [2]: 2130 ng·h/mL; Cmax [2]: 1480 ng/mL; MRT inf [2]: 81 min; MRT last [2]: 75 min; Tmax [2]: 19.8 min; half-life [2]: 70.8 min
N#CC[C@@H](CCC(F)(F)F)n1cc(-c2ncnc3[nH]ccc23)cn1 [Compound 6-1] | 0.311 | 9240 | 9230 | 6320 | 69 | 68.4 | 15 | 50.4 | –
N#CCC(C1CCC(C(F)(F)F)CC1)n1cc(-c2ncnc3[nH]ccc23)cn1 (centres unmarked) [Compound 5] | 0.488 | 2000 | 1980 | 1410 | 78.6 | 73.2 | 15 | 81.6 | –
N#CC[C@H](C1CCCC1)n1cc(-c2ncnc3[nH]ccc23)cn1 [Ruxolitinib, reference compound] | – | – | – | – | – | – | – | – | AUC(0-inf) ([3]; 5 mg/kg): 580 ng·h/mL; AUC(0-t) ([3]; 5 mg/kg): 578 ng·h/mL; Cmax ([3]; 5 mg/kg): 893 ng/mL; MRT inf ([3]; 5 mg/kg): 42.6 min; MRT last ([3]; 5 mg/kg): 42 min; Tmax ([3]; 5 mg/kg): 7.8 min; half-life ([3]; 5 mg/kg): 30 min
N#CC[C@H](CCC(F)(F)F)n1cc(-c2ncnc3[nH]ccc23)cn1 [Compound 6-2] | 0.116 | 4770 | 4760 | 6770 | 36.6 | 36 | 4.8 | 44.4 | –
N#CCC(n1cc(-c2ncnc3[nH]ccc23)cn1)C1(C(F)(F)F)CCC1 (centres unmarked) [Compound 9] | 0.401 | – | – | – | – | – | – | – | –
N#CCC(C1CC(F)(F)C1)n1cc(-c2ncnc3[nH]ccc23)cn1 (centres unmarked) [Compound 7] | 0.479 | 1660 | 1660 | 3190 | 30.6 | 29.4 | 4.8 | 89.4 | –
N#CCC(C1CCC(F)(F)CC1)n1cc(-c2ncnc3[nH]ccc23)cn1 (centres unmarked) [Compound 4] | 0.402 | – | – | – | – | – | – | – | –
CC(C)(C(CC#N)n1cc(-c2ncnc3[nH]ccc23)cn1)C(F)(F)F (centres unmarked) [Compound 8] | 0.419 | – | – | – | – | – | – | – | –
